Experimental data: the supplement of paper PMC12137928
Where a name gives a salt, the structure may show the parent alone.

Legend:
HCT116 [1] = experiment: efficacy (maximum % inhibition of viability vs DMSO); higher = more cytotoxic; settings: 72 h
Procedure, shortened: (§1)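 IC50 and maximal efficacy were derived from four-parameter Hill curve fits. The underlying CellTiter-Glo luminescence was scaled so that vehicle equals 0% and positive control equals -100%, and was then pattern-corrected. HCT116 cells had been seeded in 1536-well plates at 250 per well.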

HCT116 [2] = settings: 72 h
Procedure, shortened: as §1

| SMILES | efficacy (HCT116 [1]; ICRF193 0 nM) [%] | efficacy (HCT116 [1]; ICRF193 200 nM) [%] | IC50 cell viability (HCT116 [2]; ICRF193 0 nM) [µM] | IC50 cell viability (HCT116 [2]; ICRF193 200 nM) [µM] |
| --- | --- | --- | --- | --- |
| CNC(=O)c1cc(Oc2ccc(NC(=O)Nc3ccc(Cl)c(C(F)(F)F)c3)c(F)c2)ccn1 [Regorafenib] | 67.3 | 80.7 | 8.2 | 5.8 |
| CC(C)C[C@H](NC(=O)[C@H](CCc1ccccc1)NC(=O)CN1CCOCC1)C(=O)N[C@@H](Cc1ccccc1)C(=O)N[C@@H](CC(C)C)C(=O)[C@@]1(C)CO1 [Carfilzomib] | 86 | 89.7 | 0.0183 | 0.0164 |
| Oc1cccc2cccnc12 [OXYQUINOLINE HEMISULFATE] | 86.7 | 88.8 | 23.1 | 18.3 |
| Oc1ccc(CCNCCCCCCNCCc2ccccc2)cc1O [Dopexamine] |  | 47.3 | > 45.8 | 18.3 |
| CC[C@@]1(O)C(=O)OCc2c1cc1n(c2=O)Cc2c-1nc1cc(F)c(C)c3c1c2[C@@H](N)CC3 [Exatecan] | 60 | 48.8 | 0.0259 | 0.0231 |
| COc1ccc(Cc2nccc3cc(OC)c(OC)cc23)cc1OC [Papaverine hydrochloride] |  | 41.6 | > 45.8 | 3.66 |
| C#C[C@]1(O)CC[C@H]2[C@@H]3CCC4=Cc5oncc5C[C@]4(C)[C@H]3CC[C@@]21C [Danazol] |  | 47.9 | > 45.8 | 20.6 |
| CN1CCN(CCCN2c3ccccc3Sc3ccc(S(=O)(=O)N(C)C)cc32)CC1 [Thioproperazine dimethanesulfonate] |  | 46.2 | > 45.8 | 20.6 |
| Nc1nc(Cl)nc2c1ncn2[C@H]1C[C@H](O)[C@@H](CO)O1 [Cladribine] | 56.1 | 66.1 | 1.3 | 0.651 |
| CN[C@H]1CC[C@@H](c2ccc(Cl)c(Cl)c2)c2ccccc21 [Sertraline hydrochloride] | 95.4 | 97.5 | 18.3 | 18.3 |
| CCOC(=O)Cn1cccc1-c1nc(-c2ccc(OC)cc2)c(-c2ccc(OC)cc2)s1 [Pamicogrel] | 89.1 | 86.7 | 5.8 | 5.17 |
| CC1=C(C(=O)OCCN(Cc2ccccc2)c2ccccc2)C(c2cccc([N+](=O)[O-])c2)C(P2(=O)OCC(C)(C)CO2)=C(C)N1 (centres undefined) [Efonidipine hydrochloride monoethanolate] | 41.1 |  | 16.4 | > 45.8 |
| Cc1c(-c2ccc(O)cc2)n(Cc2ccc(OCCN3CCCCCC3)cc2)c2ccc(O)cc12 [Bazedoxifene] |  | 47.4 | > 45.8 | 23.1 |
| CC[C@H](C)C(=O)O[C@H]1C[C@@H](C)C=C2C=C[C@H](C)[C@H](CC[C@@H]3C[C@@H](O)CC(=O)O3)[C@H]21 [Lovastatin] |  | 46.5 | > 45.8 | 20.6 |
| O=C(CCCN1CCC(O)(c2ccc(Br)cc2)CC1)c1ccc(F)cc1 [Bromperidol] | 44.8 | 55.1 | 18.3 | 20.6 |
| CC[C@H](Nc1ncnc2[nH]cnc12)c1nc2cccc(F)c2c(=O)n1-c1ccccc1 [Idelalisib] |  | 42.6 | > 45.8 | 29.1 |
| Cc1cccc(CN2CCN(C(c3ccccc3)c3ccc(Cl)cc3)CC2)c1 (centres undefined) [Meclizine hydrochloride] |  | 49.1 | > 45.8 | 29.1 |
| CN(C)CCC=C1c2ccccc2C=Cc2ccccc21 [Cyclobenzaprine hydrochloride] |  | 52.3 | > 45.8 | 20.6 |
| C=CC(=O)N1CCC[C@@H](n2nc(-c3ccc(Oc4ccccc4)cc3)c3c(N)ncnc32)C1 | 47.6 | 72.8 | 23.1 | 29.1 |
| CC1=CC(=C(c2ccc(N)cc2)c2ccc(N)cc2)C=CC1=N [C.I. Basic Violet 14] | 98.1 | 92.3 | 10.3 | 5.17 |
| CNCCCC12CCC(c3ccccc31)c1ccccc12 [Maprotiline hydrochloride] |  | 86.5 | > 45.8 | 29.1 |
| CCc1c(Cl)c(O)c(Cl)c(O)c1C(=O)O[C@H]1[C@H](O)[C@H](OC)[C@H](OC/C2=C\C=C\C[C@H](O)/C(C)=C/[C@H](CC)[C@@H](O[C@@H]3OC(C)(C)[C@@H](OC(=O)C(C)C)[C@H](O)[C@@H]3O)/C(C)=C/C(C)=C/C[C@@H]([C@@H](C)O)OC2=O)O[C@@H]1C [Fidaxomicin] | 103 | 53.2 | 20.6 | 20.6 |
| CC1(C)C(/C=C/C=C/C=C/C=C2\N(CCCCS(=O)(=O)O)c3ccc4ccccc4c3C2(C)C)=[N+](CCCCS(=O)(=O)[O-])c2ccc3ccccc3c21 [INDOCYANINE GREEN] | 43.6 |  | 29.1 | > 45.8 |
| COC(=O)[C@H]1[C@H]2C[C@@H]3c4[nH]c5cc(OC)ccc5c4CCN3C[C@H]2C[C@@H](OC(=O)/C=C/c2ccc(O)c(OC)c2)[C@@H]1OC [Rescimetol] | 101 | 106 | 20.6 | 29.1 |
| Oc1c(Cl)cc(Cl)cc1Sc1cc(Cl)cc(Cl)c1O [Bithionol] | 92.2 | 108 | 18.3 | 20.6 |

| SMILES | efficacy (HCT116 [1]; ICRF193 0 nM) [%] | efficacy (HCT116 [1]; ICRF193 200 nM) [%] | IC50 cell viability (HCT116 [2]; ICRF193 0 nM) [µM] | IC50 cell viability (HCT116 [2]; ICRF193 200 nM) [µM] |
| --- | --- | --- | --- | --- |
| O[C@@H](COc1cccc2ncccc12)CN1CCN([C@@H]2c3ccccc3[C@@H]3[C@H](c4ccccc42)C3(F)F)CC1 [Zosuquidar trihydrochloride] | 141 | 105 | 23.1 | 20.6 |
| NC(=O)C1(N2CCCCC2)CCN(CCCN2c3ccccc3CCc3ccccc32)CC1 [Carpipramine Dihydrochloride] | 115 | 100 | 23.1 | 20.6 |
| OC[C@H]1O[C@H](O[C@]2(CCl)O[C@H](CCl)[C@@H](O)[C@@H]2O)[C@H](O)[C@@H](O)[C@H]1Cl [Sucralose] |  | 44.6 | > 45.8 | 6.51 |
| Cc1c(C(=O)NN2CCCCC2)nn(-c2ccc(Cl)cc2Cl)c1-c1ccc(Cl)cc1 [Rimonabant] | 64.4 | 87.3 | 18.3 | 29.1 |
| CN(C)c1ccc(C(=C2C=CC(=[N+](C)C)C=C2)c2ccc(N(C)C)cc2)cc1 [Methylrosaniline chloride] | 89.5 | 90.4 | 0.326 | 0.164 |
| C#C[C@]1(O)CC[C@H]2[C@@H]3CCc4cc(OC5CCCC5)ccc4[C@H]3CC[C@@]21C [Quinestrol] | 55 | 56.3 | 20.6 | 23.1 |
| Clc1ccc(COC(Cn2ccnc2)c2ccc(Cl)cc2Cl)cc1 (centres undefined) [Econazole nitrate] | 90.3 | 96 | 20.6 | 20.6 |
| CCCCCCCC(=O)N[C@H](CN1CCCC1)[C@H](O)c1ccc2c(c1)OCCO2 [Eliglustat (Tartrate)] |  | 44.2 | > 45.8 | 29.1 |
| CNCCC(Oc1ccc(C(F)(F)F)cc1)c1ccccc1 (racemic) [(+/-) -Fluoxetine] | 106 | 102 | 29.1 | 18.3 |
| Cc1cc(-c2ccc(/N=N/c3ccc4c(S(=O)(=O)O)cc(S(=O)(=O)O)c(N)c4c3O)c(C)c2)ccc1/N=N/c1ccc2c(S(=O)(=O)O)cc(S(=O)(=O)O)c(N)c2c1O [EVANS BLUE] | 95.6 | 87.8 | 18.3 | 18.3 |
| O=C(CCCN1CCN(c2ccccn2)CC1)c1ccc(F)cc1 [Azaperone] |  | 87.6 | > 45.8 | 0.206 |
| C=C1/C(=C\C=C2/CCC[C@]3(C)[C@@H]([C@H](C)/C=C/[C@@H](O)C4CC4)CC[C@@H]23)C[C@@H](O)C[C@@H]1O [Calcipotriene] |  | 54 | > 45.8 | 20.6 |
| CC(=O)Oc1ccccc1C(=O)Nc1ncc([N+](=O)[O-])s1 [Nitazoxanide] | 104 | 122 | 13 | 18.3 |
| CC1(S(=O)(=O)O)CC(=O)c2ccccc2C1=O (centres undefined) [Menadione sodium bisulfite] | 102 | 40.7 | 18.3 | 29.1 |
| Cc1cc2nc3c(=O)[nH]c(=O)nc-3n(C[C@H](O)[C@H](O)[C@H](O)CO)c2cc1C [Riboflavin] |  | 57.7 | > 45.8 | 14.2 |
| O=C(CCCN1CCN(c2ccc(F)cc2)CC1)NC1c2ccccc2CSc2ccccc21 (centres undefined) [Monatepil] | 123 | 93.7 | 23.1 | 23.1 |
| Cc1cc(/C=C/c2ccc3cc(N(C)C)ccc3[n+]2C)c(C)n1-c1ccccc1 [PYRVINIUM PAMOATE] | 111 | 93.2 | 20.6 | 18.3 |
| Cn1cncc1[C@@](N)(c1ccc(Cl)cc1)c1ccc2c(c1)c(-c1cccc(Cl)c1)cc(=O)n2C [Tipifarnib] | 118 | 126 | 20.6 | 23.1 |
| CCCCCCCCCCCCCC[n+]1ccc(C)cc1 [Miripirium chloride] | 104 | 70 | 11.6 | 8.2 |
| CCCCCCCCCCCC[N+](C)(C)CCOc1ccccc1 [Domiphen bromide] | 101 | 90.4 | 10.3 | 8.2 |
| CC(C)C[C@H](NC(=O)CNC(=O)c1cc(Cl)ccc1Cl)B(O)O [Ixazomib] | 92.8 | 92.6 | 0.0651 | 0.058 |
| O=C(c1ccc(OCCN2CCCCC2)cc1)c1c(-c2ccc(O)cc2)sc2cc(O)ccc12 [Raloxifene hydrochloride] | 98.1 | 88.8 | 18.3 | 20.6 |
| Cc1c2oc3c(C)ccc(C(=O)N[C@@H]4C(=O)N[C@H](C(C)C)C(=O)N5CCC[C@H]5C(=O)N(C)CC(=O)N(C)[C@@H](C(C)C)C(=O)O[C@@H]4C)c3nc-2c(C(=O)N[C@@H]2C(=O)N[C@H](C(C)C)C(=O)N3CCC[C@H]3C(=O)N(C)CC(=O)N(C)[C@@H](C(C)C)C(=O)O[C@@H]2C)c(N)c1=O [Actinomycin D] | 48.1 | 79.3 | 0.0164 | 0.0206 |
| CN(C)c1ccc(C(=C2C=CC(=[N+](C)C)C=C2)c2ccccc2)cc1 [Malachite green oxalate] | 98.5 | 96 | 0.183 | 0.231 |
